# Results reported in patent publication US20150105252A1, “SUBSTITUTED PYRAZOLES AS HERBICIDES” (E I DU PONT DE NEMOURS AND COMPANY, priority 2013, published 2015).
# Legend:
# foxtail, giant [1] = assay: Test C preemergence; assay type: in vivo, Setaria faberii
# Outline: (§1)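 Scores of 0 (no effect) to 100 (complete control) were assigned by eye after 13–15 days, comparing treated pots with controls. Soil-applied (preemergence) treatments went onto seeds in loam and sand; foliar (postemergence) treatments onto 1- to 4-leaf plants in peat medium.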
# ducksalad = assay: Test B flood; assay type: in vivo, Heteranthera limosa; conditions: 250 g ai/ha, visual rating on 0 to 100 scale (0 no effect, 100 complete control), 13 to 15 days
# Outline: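 Visual ratings (0 = no effect, 100 = complete control) versus untreated controls were taken 13–15 days after treatment of greenhouse plants. Treatment was added to paddy water held at 3 cm depth on 2-leaf-stage seedlings.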
# waterhemp = assay: Test C preemergence; assay type: in vivo, Amaranthus rudis
# Text: (§2) Seeds of plant species selected from blackgrass (Alopecurus myosuroides), ryegrass, Italian (Italian ryegrass, Lolium multiflorum), wheat (winter wheat, Triticum aestivum), galium (catchweed bedstraw, Galium aparine), corn (Zea mays), crabgrass, large (large crabgrass, Digitaria sanguinalis), foxtail, giant (giant foxtail, Setaria faberii), johnsongrass (Sorghum halepense), lambsquarters (Chenopodium album), morningglory (Ipomoea coccinea), nutsedge, yellow (yellow nutsedge, Cyperus esculentus), pigweed (redroot pigweed, Amaranthus retroflexus), ragweed (common ragweed, Ambrosia elation), soybean (Glycine max), barnyardgrass (Echinochloa crus-galli), oilseed rape (Brassica napus), waterhemp (common waterhemp, Amaranthus rudis), oat, wild (wild oat, Avena fatua), kochia (Kochia scoparia), Surinam grass (Brachiaria decumbens), foxtail, green (green foxtail, Setaria viridis), goosegrass (Eleusine indica), bromegrass, downy (downy bromegrass, Bromus tectorum), nightshade (eastern black nightshade, Solanum ptycanthum), cocklebur (common cocklebur, Xanthium strumarium), cupgrass, woolly (woolly cupgrass, Eriochloa villosa), bermudagrass (Cynodon dactylon), sunflower, (common oilseed sunflower, Helianthus annuus), Russian thistle (Salsola kali), and velvetleaf (Abutilon theophrasti) were planted into a blend of loam soil and sand and treated preemergence with test chemicals formulated in a non-phytotoxic solvent mixture which included a surfactant.
# (§3) At the same time, plants selected from these crop and weed species and also chickweed (common chickweed, Stellaria media), canarygrass (littleseed canarygrass, Phalaris minor), and deadnettle (henbit deadnettle, Lamium amplexicaule), were planted in pots containing Redi-Earth® planting medium (Scotts Company, 14111 Scottslawn Road, Marysville, Ohio 43041) comprising spaghnum peat moss, vermiculite, wetting agent and starter nutrients and treated with postemergence applications of test chemicals formulated in the same manner. Plants ranged in height from 2 to 18 cm (1- to 4-leaf stage) for postemergence treatments. Treated plants and controls were maintained in a greenhouse for 13 to 15 days, after which time all species were compared to controls and visually evaluated. Plant response ratings, summarized in Table C, are based on a scale of 0 to 100 where 0 is no effect and 100 is complete control. A dash (-) response means no test result.
# foxtail, giant [2] = assay: Test A postemergence; assay type: in vivo, Setaria faberii
# Outline: (§4)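 Visual injury ratings, 0 = no effect to 100 = complete control, taken about 10 days after treatment against untreated controls. Test chemicals, in a non-phytotoxic surfactant-containing solvent, were sprayed onto soil preemergence or onto one- to two-leaf plants (2–10 cm) postemergence, in loam–sand soil under greenhouse conditions.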
# crabgrass, large = assay: Test C preemergence; assay type: in vivo, Digitaria sanguinalis
# Outline: as §1
# foxtail, giant [3] = assay: Test A preemergence; assay type: in vivo, Setaria faberii; conditions: for Foxtail, Giant plant response rating (0 to 100 scale): visual injury approx. 10 days after treatment
# Outline: as §4
# morningglory = assay: Test A postemergence; assay type: in vivo, Ipomoea spp.
# Outline: as §4
# foxtail, giant [4] = assay: Test C postemergence; assay type: in vivo, Setaria faberii; conditions: for Foxtail, Giant plant response rating: scale 0 to 100
# Outline: as §1
# oat, wild = assay: Test C postemergence; assay type: in vivo, Avena fatua; conditions: for Oat, Wild plant response rating: scale 0 to 100
# Outline: as §1
# chickweed = assay: Test C postemergence; assay type: in vivo, Stellaria media; conditions: for Chickweed plant response rating: scale 0 to 100
# Outline: as §1
# galium = assay: Test C postemergence; assay type: in vivo, Galium aparine; conditions: for Galium plant response rating: scale 0 to 100
# Outline: as §1
# johnsongrass = assay: Test C postemergence; assay type: in vivo, Sorghum halepense; conditions: for Johnsongrass plant response rating: scale 0 to 100
# Text: as §2, §3
# [5] = Preemergence, 4 g ai/ha, scale 0 to 100
# [6] = Preemergence, 8 g ai/ha, scale 0 to 100
# [7] = Preemergence, 16 g ai/ha, scale 0 to 100
# [8] = preemergence, 31 g ai/ha, visual rating, scale 0 to 100 (0 no effect, 100 complete control), 13 to 15 days
# [9] = Postemergence, 500 g ai/ha, 0 to 100 scale (0 no effect, 100 complete control)
# [10] = postemergence, 125 g ai/ha, about 10 days, visual rating on 0 to 100 scale (0 no effect, 100 complete control)
# [11] = preemergence, 500 g ai/ha, visual injury after approx. 10 days, 0 to 100 scale (0 no effect, 100 complete control)
# [12] = preemergence, 62 g ai/ha, scale 0 to 100 (0 no effect, 100 complete control), 13 to 15 days
# [13] = preemergence, 125 g ai/ha, 13 to 15 days, scale 0 to 100, 0 = no effect, 100 = complete control
# [14] = preemergence, 250 g ai/ha, scale 0 to 100, 0 is no effect, 100 is complete control
# [15] = preemergence, 31 g ai/ha, scale 0 to 100 (0 no effect, 100 complete control), 13 to 15 days
# [16] = preemergence, 62 g ai/ha, 13 to 15 days, scale 0 to 100, 0 = no effect, 100 = complete control
# [17] = preemergence, 125 g ai/ha, scale 0 to 100, 0 is no effect, 100 is complete control
# [18] = postemergence, 250 g ai/ha, scale 0 to 100 (0 no effect, 100 complete control)
# [19] = postemergence, 125 g ai/ha, scale 0 to 100, 0 no effect, 100 complete control
# [20] = Postemergence, 1000 g ai/ha, visual rating after approx. 10 days, 0 to 100 scale (0 no effect, 100 complete control)
smiles,measurement,setting,value
CCOc1cc(C(=O)NCC(F)(F)F)nn1Cc1cc(C(F)(F)F)nn1C [Compound 140],"Plant response rating, Foxtail, Giant","foxtail, giant [1]; [5]",20
same,"Plant response rating, Foxtail, Giant","foxtail, giant [1]; [6]",40
same,"Plant response rating, Foxtail, Giant","foxtail, giant [1]; [7]",75
same,"Foxtail, Giant plant response rating","foxtail, giant [1]; [8]",70
same,"Plant response rating, Ducksalad",ducksalad,95
same,"Plant response rating, Waterhemp",waterhemp; [5],70
same,"Plant response rating, Waterhemp",waterhemp; [6],70
same,"Plant response rating, Waterhemp",waterhemp; [7],85
same,Waterhemp plant response rating,waterhemp; [8],95
same,"Foxtail, Giant plant response rating","foxtail, giant [2]; [9]",90
same,"Foxtail, Giant plant response rating","foxtail, giant [2]; [10]",80
same,"Plant response rating, Crabgrass, Large","crabgrass, large; [5]",45
same,"Plant response rating, Crabgrass, Large","crabgrass, large; [6]",55
same,"Plant response rating, Crabgrass, Large","crabgrass, large; [7]",75
same,"Crabgrass, Large plant response rating","crabgrass, large; [8]",98
same,"Foxtail, Giant plant response rating","foxtail, giant [3]; preemergence, 125 g ai/ha, visual injury, 0 to 100 scale, approx. 10 days",100
same,"Foxtail, Giant plant response rating","foxtail, giant [3]; [11]",100
same,Morningglory plant response rating,morningglory; [9],90
same,Morningglory plant response rating,morningglory; [10],90
O=C(NC1CC1)c1cc(CCF)n(Cc2ccnc(C(F)(F)F)c2)n1 [Compound 176],"Foxtail, Giant plant response rating","foxtail, giant [1]; [8]",35
same,"Foxtail, Giant plant response rating","foxtail, giant [1]; [12]",90
same,"Plant response rating, Foxtail, Giant","foxtail, giant [1]; [13]",100
same,"Foxtail, Giant plant response rating","foxtail, giant [1]; [14]",100
same,"Plant response rating, Ducksalad",ducksalad,100
same,Waterhemp plant response rating,waterhemp; [8],100
same,Waterhemp plant response rating,waterhemp; [12],100
same,"Plant response rating, Waterhemp",waterhemp; [13],100
same,Waterhemp plant response rating,waterhemp; [14],100
same,"Foxtail, Giant plant response rating","foxtail, giant [2]; [9]",90
same,"Foxtail, Giant plant response rating","foxtail, giant [2]; [10]",80
same,"Crabgrass, Large plant response rating","crabgrass, large; [8]",98
same,"Crabgrass, Large plant response rating","crabgrass, large; [12]",95
same,"Plant response rating, Crabgrass, Large","crabgrass, large; [13]",100
same,"Crabgrass, Large plant response rating","crabgrass, large; [14]",100
same,"Foxtail, Giant plant response rating (0 to 100 scale)","foxtail, giant [3]; preemergence, 125 g ai/ha",90
same,"Foxtail, Giant plant response rating","foxtail, giant [3]; [11]",100
same,Morningglory plant response rating,morningglory; [9],90
same,Morningglory plant response rating,morningglory; [10],90
CCCc1cc(C(=O)NOC(C)C)nn1Cc1cc(C(F)(F)F)nn1C [Compound 203],"Foxtail, Giant plant response rating","foxtail, giant [1]; [8]",60
same,"Foxtail, Giant plant response rating","foxtail, giant [1]; [12]",98
same,"Plant response rating, Foxtail, Giant","foxtail, giant [1]; [13]",100
same,"Foxtail, Giant plant response rating","foxtail, giant [1]; [14]",100
same,"Plant response rating, Ducksalad",ducksalad,95
same,Waterhemp plant response rating,waterhemp; [8],85
same,Waterhemp plant response rating,waterhemp; [12],95
same,"Plant response rating, Waterhemp",waterhemp; [13],100
same,Waterhemp plant response rating,waterhemp; [14],100
same,"Foxtail, Giant plant response rating","foxtail, giant [2]; [9]",90
same,"Foxtail, Giant plant response rating","foxtail, giant [2]; [10]",80
same,"Crabgrass, Large plant response rating","crabgrass, large; [8]",80
same,"Crabgrass, Large plant response rating","crabgrass, large; [12]",95
same,"Plant response rating, Crabgrass, Large","crabgrass, large; [13]",100
same,"Crabgrass, Large plant response rating","crabgrass, large; [14]",100
same,"Foxtail, Giant plant response rating (0 to 100 scale)","foxtail, giant [3]; preemergence, 125 g ai/ha",80
same,"Foxtail, Giant plant response rating","foxtail, giant [3]; [11]",100
same,Morningglory plant response rating,"morningglory; Postemergence, 125 g ai/ha, 0 to 100 scale, 0 no effect, 100 complete control",50
same,Morningglory plant response rating,morningglory; [9],90
O=C(NCC(F)(F)F)c1cc(CCF)n(Cc2ccnc(C(F)(F)F)c2)n1 [Compound 175],"Foxtail, Giant plant response rating","foxtail, giant [1]; [8]",75
same,"Foxtail, Giant plant response rating","foxtail, giant [1]; [12]",100
same,"Plant response rating, Foxtail, Giant","foxtail, giant [1]; [13]",100
same,"Foxtail, Giant plant response rating","foxtail, giant [1]; [14]",100
same,"Plant response rating, Ducksalad",ducksalad,100
same,Waterhemp plant response rating,waterhemp; [8],100
same,Waterhemp plant response rating,waterhemp; [12],100
same,"Plant response rating, Waterhemp",waterhemp; [13],100
same,Waterhemp plant response rating,waterhemp; [14],100
same,"Foxtail, Giant plant response rating","foxtail, giant [2]; [9]",90
same,"Foxtail, Giant plant response rating","foxtail, giant [2]; [10]",80
same,"Crabgrass, Large plant response rating","crabgrass, large; [8]",100
same,"Crabgrass, Large plant response rating","crabgrass, large; [12]",100
same,"Plant response rating, Crabgrass, Large","crabgrass, large; [13]",100
same,"Crabgrass, Large plant response rating","crabgrass, large; [14]",100
same,"Foxtail, Giant plant response rating (0 to 100 scale)","foxtail, giant [3]; preemergence, 125 g ai/ha",100
same,"Foxtail, Giant plant response rating","foxtail, giant [3]; [11]",100
same,Morningglory plant response rating,morningglory; [9],90
same,Morningglory plant response rating,morningglory; [10],80
Cc1cc(C(=O)NCC(F)(F)F)nn1Cc1ccnc(C(F)(F)F)c1 [Compound 74],"Plant response rating (scale of 0 to 100), Foxtail, Giant","foxtail, giant [1]; Preemergence, 250 g ai/ha",100
same,"Foxtail, Giant plant response rating","foxtail, giant [1]; [15]",80
same,"Plant response rating, Foxtail, Giant","foxtail, giant [1]; [16]",100
same,"Foxtail, Giant plant response rating","foxtail, giant [1]; [17]",100
same,"Foxtail, Giant plant response rating","foxtail, giant [4]; Postemergence, 31 g ai/ha",5
same,"Foxtail, Giant plant response rating","foxtail, giant [4]; postemergence, 62 g ai/ha",10
same,"Plant response rating, Foxtail, Giant","foxtail, giant [4]; [18]",25
same,"Plant response rating, Foxtail, Giant","foxtail, giant [4]; [19]",10
same,"Plant response rating, Ducksalad",ducksalad,75
same,"Oat, Wild plant response rating","oat, wild; Postemergence, 31 g ai/ha",0
same,"Oat, Wild plant response rating","oat, wild; postemergence, 62 g ai/ha",0
same,"Plant response rating, Oat, Wild","oat, wild; [18]",5
same,"Plant response rating, Oat, Wild","oat, wild; [19]",5
same,"Foxtail, Giant plant response rating","foxtail, giant [2]; [20]",90
same,"Plant response rating (scale of 0 to 100), Crabgrass, Large","crabgrass, large; Preemergence, 250 g ai/ha",100
same,"Crabgrass, Large plant response rating","crabgrass, large; [15]",98
same,"Plant response rating, Crabgrass, Large","crabgrass, large; [16]",100
same,"Crabgrass, Large plant response rating","crabgrass, large; [17]",100
same,"Foxtail, Giant plant response rating","foxtail, giant [3]; Preemergence, 1000 g ai/ha, 0 to 100 scale, 0 no effect, 100 complete control",100
same,Chickweed plant response rating,"chickweed; Postemergence, 31 g ai/ha",20
same,Chickweed plant response rating,"chickweed; postemergence, 62 g ai/ha",45
same,"Plant response rating, Chickweed",chickweed; [18],55
same,"Plant response rating, Chickweed",chickweed; [19],45
same,Morningglory plant response rating,morningglory; [20],100
same,Galium plant response rating,"galium; Postemergence, 31 g ai/ha",60
same,Galium plant response rating,"galium; postemergence, 62 g ai/ha",60
same,"Plant response rating, Galium",galium; [18],85
same,"Plant response rating, Galium",galium; [19],80
same,Johnsongrass plant response rating,"johnsongrass; Postemergence, 31 g ai/ha",0
same,Johnsongrass plant response rating,"johnsongrass; postemergence, 62 g ai/ha",0
same,"Plant response rating, Johnsongrass",johnsongrass; [18],15
same,"Plant response rating, Johnsongrass",johnsongrass; [19],5
